Source: patent US5106873A, “ACAT inhibitors” (priority 1990, dated 1992)

What was measured:
[1] = target: T1, acyl-CoA: cholesterol acyltransferase (ACAT) (Oryctolagus cuniculus, UniProt G1SFD9); assay: In vitro inhibition of ACAT (acylation of cholesterol by oleic acid) in rabbit intestinal microsomes; format: biochemical; details: radiolabeled oleic acid
T1 construct: tissue preparation containing rabbit intestinal microsomes; from tissue; host or cells: rabbit intestinal microsomes
T1 sequence (G1SFD9 1-524): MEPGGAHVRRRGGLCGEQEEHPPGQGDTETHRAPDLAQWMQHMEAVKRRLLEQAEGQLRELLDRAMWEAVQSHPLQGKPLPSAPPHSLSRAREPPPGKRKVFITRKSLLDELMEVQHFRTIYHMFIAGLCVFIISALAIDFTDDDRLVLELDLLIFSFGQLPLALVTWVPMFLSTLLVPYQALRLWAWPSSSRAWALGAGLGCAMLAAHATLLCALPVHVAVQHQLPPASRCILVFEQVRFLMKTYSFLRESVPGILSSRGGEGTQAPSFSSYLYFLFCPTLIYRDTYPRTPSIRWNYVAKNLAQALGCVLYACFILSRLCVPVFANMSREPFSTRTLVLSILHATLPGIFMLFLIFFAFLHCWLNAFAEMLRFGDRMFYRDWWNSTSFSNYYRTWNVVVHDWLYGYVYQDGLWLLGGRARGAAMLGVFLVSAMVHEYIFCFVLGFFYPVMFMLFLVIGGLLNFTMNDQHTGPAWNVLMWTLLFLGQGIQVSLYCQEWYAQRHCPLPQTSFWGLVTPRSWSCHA
Description: The ability of representative compounds of the present invention to inhibit ACAT was measured using an in vitro test more fully described in Field, F. J. and Salone, R. G., Biochemica et Biophysica, 712:557-570 (1982). The test assesses the ability of a test compound to inhibit the acylation of cholesterol by oleic acid by measuring the amount of radiolabeled cholesterol […] formed from radiolabeled oleic acid in a tissue preparation containing rabbit intestinal microsomes. The data appear in Table 1 where they are expressed in IC50 values; i.e., the concentration of test compound required to inhibit 50% expression of the enzyme.

[2] = In vivo screen designated APCC, cholesterol in rats fed PCC diet with cholic acid; parameters: species or system male Sprague-Dawley rats; details: blood cholesterol; PCC diet with 1% or 0.5% cholic acid; dosed at 4 PM, sacrificed at 8 AM; dose not stated
Description: In one in vivo screen designated APCC, male Sprague-Dawley rats (200 to 225 g) were randomly divided into treatment groups and dosed at 4 PM with either vehicle (CMC/Tween) or suspensions of compounds in vehicle. The normal, chow diet was then replaced with the PCC diet with either 1% or 0.5% cholic acid, as indicated. The rats consumed this diet ad libitum during the night and were sacrificed at 8 AM to obtain blood samples for cholesterol analysis using standard procedures. Statistical differences between mean cholesterol values for the same vehicle were determined using analysis of variance followed by Fisher's least significant test.

Compound	IC50 [1] [µM]	% Change [2] [%]
CCCC(CCC)(CNC(=O)Nc1c(C(C)C)cccc1C(C)C)NC(=O)c1ccc(OC)cc1 [Example 4]	0.096	
COc1ccc(C(=O)NC2(CNC(=O)Nc3c(C(C)C)cccc3C(C)C)CCCC2)cc1 [Example 5, N-[1-[[[[[2,6-bis(1-methylethyl)phenyl]amino]carbonyl]amino]methyl]cyclopentyl]-4-methoxybenzamide]	0.51	
COc1ccc(CN[C@H](CNC(=O)Nc2c(C(C)C)cccc2C(C)C)CC(C)C)cc1 [Example 6, (S)-(-)-N-[2,6-bis(1-methylethyl)phenyl]-N'-[2-[[(4-methoxyphenyl)methyl]amino]-4-methyl-pentyl]urea]	0.057	-25
COc1ccc(CN[C@@H](CCSC)CNC(=O)Nc2c(C(C)C)cccc2C(C)C)cc1 [Example 7, (S)-(-)-N-[2,6-Bis(1-methylethyl)phenyl]-N'-[2-[[(4-methoxyphenyl)methyl]amino]-4-(methylthio)butyl]urea]		-31
COc1ccc(CN[C@H](CNC(=O)Nc2c(C(C)C)cccc2C(C)C)C(C)C)cc1 [Example 8, (S)-(-)-N[2,6-Bis(1-methylethyl)phenyl]-N'-[2-[[(4-methoxyphenyl]methyl]amino]-3-methylbutyl]urea]	0.085	-17
COc1ccc(CN[C@H](CNC(=O)Nc2c(C(C)C)cccc2C(C)C)Cc2ccccc2)cc1 [Example 9, (S)-(-)-N-[2,6-Bis(1-methylethyl)phenyl]-N'-[2-[[(4-methoxyphenyl)methyl]amino]-3-phenylpropyl]urea]		-33
CC(C)c1cccc(C(C)C)c1NC(=O)NC[C@H](Cc1ccccc1)NCc1ccccc1O [Example 10]		-46
